We go through 104 molecules from ChEMBL document CHEMBL3507680, “University of Dundee, Gates Library screen for HepG2 cell viability”.

Molecules are shown by their SMILES.

The data set is described as follows: Human HepG2 cell viability assay in 384 well format. Particulars: HepG2 cells, read-out: Inhibition. The arrangement: dose 125 nL, time 70.5 hour; cytotoxicity at 70.5 h: concentration not given beside the values. In kind it is toxicity, cell-based.
Regarding `Cc1cc(C2CCCN(Cc3ncc(C(C)C)o3)C2)n[nH]1` (centres undefined), the cytotoxicity at 70.5 h was -6.54%. The same measure for `CCc1nc(C(=O)N2CCOCC2CC(=O)c2ccccc2)c[nH]1` (centres undefined): -8.59%; for `O=C(CC1COCCN1C(=O)c1cscn1)c1ccccc1` (centres undefined): -11.8%. With `Cc1nc(-c2cccc(C#N)c2)nn1CC1(O)CCCCC1`, the cytotoxicity at 70.5 h is 3.88%. Regarding `N#CCCCOc1cccc(CN2CCCC2c2ccc[nH]2)c1` (centres undefined), the cytotoxicity at 70.5 h turned out to be 1.38%. The same measure for `COCc1cccc(C(=O)N2CCCC2)c1`: 4.08%; for `Cc1cc(Br)ccc1NCC(=O)Nc1cc(C(C)(C)C)no1`: -4.88%; for `Cc1cc(C(=O)NC2CCN(c3ncccc3C#N)CC2)no1`: -2.85%.

On to `Cc1ncsc1C(=O)NC1CCN(c2ncccc2C#N)CC1`, for which the cytotoxicity at 70.5 h was -6.11%. `CCc1ccc(C(C)NC(=O)CCc2nc(-c3nnc[nH]3)no2)cc1` (centres undefined): the cytotoxicity at 70.5 h was -4.48%. As for `CCCC(=O)NC1CCCN(C(=O)c2ccc(C)nc2)C1` (centres undefined), the cytotoxicity at 70.5 h stood at 14.6%.

On to `CCc1noc(C)c1C(=O)NCc1cc[nH]n1`, for which the cytotoxicity at 70.5 h is 0.164%. With `Cn1c(C2CCCCN2C(=O)CN2CCCC2=O)nc2ccccc21` (centres undefined), the cytotoxicity at 70.5 h was 21.3%.

`CCC(=O)NC1CCCN(C(=O)c2ccc(OCC3CC3)nc2)C1` (centres undefined): the cytotoxicity at 70.5 h was 15.5%. On to `CCc1ccc(C2CCCCCN2C(=O)CNC(=O)C2CC2)o1` (centres undefined), for which the cytotoxicity at 70.5 h was -1.46%. The same measure for `CCNC(=O)NCc1ccc(CN2CCCC(C)C2)cc1` (centres undefined): -0.573%; for `CCc1ccc(C2CCCCCN2C(=O)CNC(=O)NC2CC2)o1` (centres undefined): -1.33%. For `Cc1cn2c(n1)CCC(NS(=O)(=O)c1ccc(C)s1)C2` (centres undefined), the cytotoxicity at 70.5 h is -1.48%. Take `N#Cc1cccc(-c2ncnn2CC2(O)CCCCC2)c1`: the cytotoxicity at 70.5 h was -3.16%. The same measure for `CC(C)(C)[S+]([O-])CCNC(=O)c1csc(NC2CC2)n1` (centres undefined): 12.6%. Consider `Cc1cc(NC(=O)N2CCOCC2)nn1-c1ccccc1Cl`, for which the cytotoxicity at 70.5 h is -5.4%.

For `c1ncc2c(n1)CN(Cc1cn3ccsc3n1)CC2`, the cytotoxicity at 70.5 h is -4.44%.

For the molecule `CC(NC1(CNC(=O)NC2CC2)CCOCC1)c1ccccc1` (centres undefined), the cytotoxicity at 70.5 h worked out at 14.3%. The same measure for `COCCOCC(=O)Nc1ccc(F)cc1C`: 11.3%.

On to `Cc1ccc(C(=O)N(C)Cc2cc(Br)cs2)cn1`, for which the cytotoxicity at 70.5 h was -8.7%.

In the case of `CC(C)C(=O)NCCC(=O)N1CCN(c2ccccn2)CC1`, the cytotoxicity at 70.5 h is -4.63%. Consider `Cc1nc(C2(NCC(=O)NC(=O)NCC(F)(F)F)CCCCC2)no1`, for which the cytotoxicity at 70.5 h was determined as 13.9%. With `Cc1ncsc1C(=O)N1CCN(Cc2cscn2)CC1`, the cytotoxicity at 70.5 h was -1.83%. `O=C(NCCCNC(=O)c1ccc(F)cc1F)c1cccc(O)c1`: the cytotoxicity at 70.5 h was -1.34%. As to `Cc1noc(C(C)N2CCN(CC(=O)N3CCCC3)CC2)n1` (centres undefined), the cytotoxicity at 70.5 h is -1.93%. In the case of `Cc1noc(C(C)N2CCN(CCC(=O)N3CCOCC3)CC2)n1` (centres undefined), the cytotoxicity at 70.5 h is -5.76%. With `COc1cccc(CC(=O)NCC(Cc2ccc(F)cc2)C(N)=O)c1` (centres undefined), the cytotoxicity at 70.5 h was -4.64%.

On to `CC(C)OCCC(=O)NCCC(=O)N1CCN(c2ccccn2)CC1`, for which the cytotoxicity at 70.5 h was -3.84%.

As to `COCCOCC(=O)Nc1ccc(C)cc1Cl`, the cytotoxicity at 70.5 h is -0.473%. Consider `O=C(C1CC=CC1)N1CCC2(CC1)OCCO2`, for which the cytotoxicity at 70.5 h was -4.94%. As for `CCn1cnnc1C1CCN(C(=O)c2ccc(OC(C)C)nc2)CC1`, the cytotoxicity at 70.5 h stood at 5.53%. Take `CCCc1nc(C)c(C(=O)Nc2cccc(C)n2)s1`: the cytotoxicity at 70.5 h came to 23.8%.

For the molecule `CC(C)c1ncc(C(=O)N2CCOCC2CC(=O)c2ccco2)s1` (centres undefined), the cytotoxicity at 70.5 h was -2.34%. With `COCCN1C(=O)CC(N2CCN(c3ccccc3)CC2)C1=O` (centres undefined), the cytotoxicity at 70.5 h was -3.99%. Consider `CCOc1ncccc1NC(=O)c1ccc(C)s1`, for which the cytotoxicity at 70.5 h was -7.78%. Regarding `Fc1ccc(C2CCCN2Cc2nnnn2C2CC2)cc1` (centres undefined), the cytotoxicity at 70.5 h is 28.2%. For the molecule `CC1CN(C(=O)Nc2cccc(CN3CCOC3=O)c2)CCO1` (centres undefined), the cytotoxicity at 70.5 h was -9.66%. In the case of `O=C(Nc1cccc(CN2CCOC2=O)c1)N1CCCC1`, the cytotoxicity at 70.5 h was -6.57%. In the case of `CC1CCCN(C(=O)Nc2cccc(CN3CCOC3=O)c2)C1` (centres undefined), the cytotoxicity at 70.5 h amounted to 35.6%.

In the case of `CC(C)NC(=O)c1nnn(-c2ccccc2)c1C1CC1`, the cytotoxicity at 70.5 h was -6.4%.

As to `O=C(NC1CC1)c1nnn(-c2cccc(C(F)(F)F)c2)c1C1CC1`, the cytotoxicity at 70.5 h was -8.39%. In the case of `CCN1CCC(NC(=O)c2ccc(F)cc2I)CC1`, the cytotoxicity at 70.5 h is -7.1%. In the case of `Cc1cccc(CNC(=O)Nc2cc(C(F)(F)F)c[nH]c2=O)n1`, the cytotoxicity at 70.5 h was -6.24%. Regarding `NC(=O)COc1ccc(CNCc2c(F)cccc2F)cc1`, the cytotoxicity at 70.5 h is -3.08%. `CCc1nnc2n1CCN(C(=O)c1ccc3[nH]nnc3c1)C2`: the cytotoxicity at 70.5 h was -8.74%. On to `CCc1nnc2n1CCN(C(=O)c1ccc3c(c1)[nH]c(=O)n3C)C2`, for which the cytotoxicity at 70.5 h was -2.36%. For `Cc1nc2ccc(C(=O)N3CCn4c(C)nnc4C3)cc2nc1C`, the cytotoxicity at 70.5 h was -5.63%. As for `Cc1cccc(-c2noc(CNC(C)Cn3cc(C)cn3)n2)c1` (centres undefined), the cytotoxicity at 70.5 h is -0.846%. As to `CCc1nnc2n1CCN(C(=O)c1ccc3c(c1)nnn3C)C2`, the cytotoxicity at 70.5 h is -0.825%. On to `Cc1cnn(CC(C)NCc2nc(-c3ccoc3)no2)c1` (centres undefined), for which the cytotoxicity at 70.5 h was 38.1%. As to `Cc1n[nH]c(C)c1NC(=O)CN1CCCC1Cn1cncn1` (centres undefined), the cytotoxicity at 70.5 h was -0.918%. The same measure for `COc1cccc(CNCCc2cc(F)cc3c2OCOC3)c1OC`: 5.71%; for `CN(C)c1cccc(C2CCCN2Cc2nnnn2C2CC2)c1` (centres undefined): -1.65%. The same measure for `COc1cc(CNCCc2cc(F)cc3c2OCOC3)cc(OC)c1`: 1.52%; for `O=C(Nc1cccc(CN2CCOC2=O)c1)N1CCCCCC1`: 35.8%. With `CCC(=O)N1CCCC1c1ccsc1` (centres undefined), the cytotoxicity at 70.5 h is -5.78%. As to `Cc1nc(C)n(CC2CCCN(CC(=O)Nc3cccnc3)C2)n1` (centres undefined), the cytotoxicity at 70.5 h was -0.663%. Regarding `O=C(CN1CCCC1Cn1cncn1)NCC1(c2ccccc2)CC1` (centres undefined), the cytotoxicity at 70.5 h was -5.75%.

`CC(Cn1cccn1)NCc1nc(-c2cccnc2)no1` (centres undefined): the cytotoxicity at 70.5 h was -3.96%. Consider `Cc1nc(-c2ccsc2)ccc1C(=O)N(C)CC1CC1`, for which the cytotoxicity at 70.5 h is -7.16%.

`CCCc1n[nH]c(C2CN(C(=O)CCn3cc(C)cn3)CCO2)n1` (centres undefined): the cytotoxicity at 70.5 h was 4.48%. Take `CS(=O)(=O)c1ccc(C(=O)N2CCCC(n3cncn3)C2)o1` (centres undefined): the cytotoxicity at 70.5 h stood at 21.1%. In the case of `CCc1cnc(CN(C)C2CCN(CCCNS(C)(=O)=O)C2)o1` (centres undefined), the cytotoxicity at 70.5 h is -2.35%. The same measure for `CS(=O)(=O)Cc1ccc(C(=O)N2CCCC(n3cncn3)C2)o1` (centres undefined): 1.66%; for `COc1ccc(C2CCCN2S(=O)(=O)N(C)C)cc1` (centres undefined): -6.59%. As for `CCCOc1ccc(Cl)cc1NC(=O)NCCC(=O)N(C)C`, the cytotoxicity at 70.5 h turned out to be 4.12%.

Take `CCCOc1cc(C)ccc1NC(=O)NCCNC(C)=O`: the cytotoxicity at 70.5 h is 3.53%. In the case of `CCOc1ccccc1NC(=O)N(CCO)Cc1ccsc1`, the cytotoxicity at 70.5 h came out at 2.23%. The same measure for `CC(C)(C(=O)NCC(=O)N1CCCC1)c1ccccc1F`: 3.99%; for `CC(C)c1ncncc1C(=O)NCCN1CCCCCC1`: -0.207%; for `CC(C)c1nnc2n1CC(CNCc1ccsc1)CC2` (centres undefined): 2.53%. The same measure for `CC(C)N(CCC#N)C(=O)c1cnc(-c2ccc3c(c2)OCO3)s1`: -0.296%; for `O=C(CCc1ccsc1)NC1CCN(c2cccc(F)c2)CC1`: 4.39%; for `CCCc1ccc(S(=O)(=O)NC(=O)CCc2cscn2)cc1`: 4.19%.

As to `O=C(CCc1ccc(Cl)cc1)NC1CCN(c2cccc(F)c2)CC1`, the cytotoxicity at 70.5 h worked out at 10.5%.

On to `CC(C)c1ncncc1C(=O)NCCN1CCCCC1C` (centres undefined), for which the cytotoxicity at 70.5 h is -1.51%. Consider `Cc1nn(C)c(N2CCOCC2)c1CNCc1cccnc1`, for which the cytotoxicity at 70.5 h was 24.7%.

Regarding `Cc1ccc(-c2n[nH]cc2CNCCn2cccn2)o1`, the cytotoxicity at 70.5 h was found to be 2.17%. Regarding `CCc1sc(C(=O)Nc2cnn(CCN(C)C)c2)cc1C`, the cytotoxicity at 70.5 h was -17.9%. `O=C(c1ccc(N2CCCC2)nn1)N1CCCc2cc(F)c(F)cc21`: the cytotoxicity at 70.5 h is -1.17%. The same measure for `O=C(c1ccc(N2CCCC2)nn1)N1CCCc2ccc(F)cc21`: 8.25%; for `COc1ccc(-c2noc(C3CCS(=O)(=O)C3)n2)cc1OC` (centres undefined): -10.7%. The same measure for `COCC(=O)NC(c1ccc(Cl)cc1)C(F)(F)F` (centres undefined): -12.5%. On to `Cc1cc(CS(=O)(=O)N(C)C(C)c2ccc(F)cc2)on1` (centres undefined), for which the cytotoxicity at 70.5 h was -7.52%. Consider `O=C(CNC(=O)N(Cc1ccoc1)C1CCCCC1)N1CCCC1`, for which the cytotoxicity at 70.5 h was -7.2%.

Regarding `CCc1nc(CNc2ccc(C(=O)NCc3ccco3)cc2C)no1`, the cytotoxicity at 70.5 h was -9.99%. The same measure for `Cc1cnc(CNc2ccc(C(=O)NCc3ccco3)cc2C)o1`: 6.63%; for `CC(NCCCC#N)c1ccc(-c2ccncc2)cc1` (centres undefined): 14.3%. As to `O=C(NCC1(c2ccc(F)cc2)CCC1)N1CCC2(CCOCC2)C1`, the cytotoxicity at 70.5 h was determined as 7.66%.

Consider `Cc1nnc(CN(Cc2ccccc2Br)C2CC2)o1`, for which the cytotoxicity at 70.5 h was -8.83%.

Consider `Cc1nnc(CN(Cc2ccccc2C(F)(F)F)C2CC2)o1`, for which the cytotoxicity at 70.5 h was -10.9%. The same measure for `Cc1nnc(CN(Cc2ccccc2Cl)C2CCCC2)o1`: -5.33%.

On to `CCc1cnc(CNc2ccc(C(=O)NCc3ccco3)cc2C)o1`, for which the cytotoxicity at 70.5 h was -8.92%. The same measure for `Cc1ccccc1-n1cnc(Cl)c1C(=O)O`: -8.21%; for `O=C(O)c1ccnc(SCc2ccccc2)c1`: 32.7%. As for `Cc1ccc(-c2nc(CSCCC(=O)NC(N)=O)co2)cc1`, the cytotoxicity at 70.5 h was -11.4%.

Consider `O=C1CC(N(C(=O)CCc2c[nH]c3ccccc23)C2CC2)C(=O)N1` (centres undefined), for which the cytotoxicity at 70.5 h is -14.1%. The same measure for `NC(=O)COc1ccc(CNCc2ccc(F)cc2)cc1`: -4.15%; for `NC(=O)COc1ccc(CNCc2cc(F)cc(F)c2)cc1`: -8.73%.
